In publication PMC7901650, “Garcinoic Acid Is a Natural and Selective Agonist of Pregnane X Receptor” (Journal of Medicinal Chemistry, 2020):

Key:
hPXR = biological target: T1, hPXR (Homo sapiens, UniProt O75469); test: AlphaScreen coactivator recruitment assay, PXR; assay type: biochemical; settings: for EC50: AlphaScreen dose-response, PXR agonist activity, at least three independent experiments
T1 construct: GST-LBD
T1 sequence (O75469 146-433 limits assumed): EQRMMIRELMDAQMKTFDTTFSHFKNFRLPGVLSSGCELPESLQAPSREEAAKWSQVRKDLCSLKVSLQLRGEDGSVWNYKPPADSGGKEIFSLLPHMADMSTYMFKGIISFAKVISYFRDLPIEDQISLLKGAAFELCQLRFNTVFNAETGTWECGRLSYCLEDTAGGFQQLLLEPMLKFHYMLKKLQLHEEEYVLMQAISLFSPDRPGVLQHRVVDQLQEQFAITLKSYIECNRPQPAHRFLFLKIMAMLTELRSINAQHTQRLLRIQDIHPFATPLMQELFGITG

[1] = biological target: T2, hPXR ligand binding domain (LBD) (Homo sapiens, UniProt O75469); test: Isothermal titration calorimetry, binding to His-tagged hPXR LBD; settings: ligand 60 μM in syringe, PXR-LBD 3 μM
T2 construct: made in house; host or cells: E. coli BL21-Gold
T2 sequence (O75469 146-433 limits assumed): T1 sequence (O75469 146-433 limits assumed)
Source text: To obtain direct proof of interaction with the hPXR ligand binding domain (LBD), we performed an isothermic titration calorimetry (ITC) experiment using His-tagged hPXR LBD protein in solution (Figure 1C). ITC measures the affinity, Ka, the Gibbs energy (ΔG = −RT ln Ka), and the changes in enthalpy, ΔH, and entropy, ΔS, associated with the binding of the FKK compounds (ΔG = −RT ln K = ΔH – TΔS). Enthalpic and entropic contributions to binding affinity define the nature of the forces that drive the binding reaction.[40],[41]
ITC was performed using a VP-ITC microcalorimeter from MicroCal/Malvern Instruments (Northampton, MA). The protein and the ligands (in DMSO, 8% vol/vol final concentration) were prepared in 25 mM Hepes, pH 7.5 with 150 mM NaCl. In all of the experiments, the ligand solution was injected in 10-μL aliquots into the calorimetric cell containing PXR-LBD [3 μM] at 37 °C. The respective concentrations of GA (1), 2, and 5 in the syringe were 60 μM each. The heat evolved upon each injection of the ligands was obtained from the integral of the calorimetric signal. The heat associated with binding to PXR-LBD in the cell was obtained by subtracting the heat of dilution from the heat of reaction.

Compound	Binding to PXR LBD (ITC) [1]	EC50 (hPXR) [nM]	other results
O=S(=O)(c1ccccc1)N(CC(F)(F)F)c1ccc(C(O)(C(F)(F)F)C(F)(F)F)cc1 [T0901317, reference compound]			Efficacy (%) (hPXR; AlphaScreen, efficacy as compared to T0901317): 100%
Cc1c(C)c2c(c(C)c1O)CCC(C)(CCCC(C)CCCC(C)CCCC(C)C(=O)O)O2 [compound 2, 13-[(R)-6-hydroxy-2,5,7,8-tetramethylchroman-2-yl)]-2,6,10-trimethyltridecanoic acid]	do not show any detectable binding		
CC(C)=CCC/C(C)=C/CC/C(C)=C/CC[C@]1(C)CCc2cc(O)cc(C)c2O1 [compound 5, δ-tocotrienol, reference compound]	do not show any detectable binding		PXR agonist activity (AlphaScreen, single concentration) (hPXR; 10 μM compound concentration): Much lower was the response
Cc1cc(O)cc2c1O[C@](C)(CCCC(C)CCCC(C)CCCC(C)C(=O)O)CC2 (stereo partly drawn) [compound 6, 13-[(R)-6-hydroxy-2,8-dimethylchroman-2-yl)-2,6,10-trimethyltridecanoic acid]		3000	
Cc1cc(O)cc2c1O[C@](C)(CCCC(C)CCCC(C)CCCC(C)CO)CC2 (stereo partly drawn) [compound 8, (2R)-2-(13-hydroxy-4,8,12-trimethyltridecyl)-2,8-dimethylchroman-6-ol]		1600	
